Activity coefficient data for 22 molecules are collected here from the NIST ThermoML archive (doi:10.1016/j.fluid.2014.09.011).

± gives the expanded uncertainty stated by the source.

This data set is described as follows: activity coefficient (dimensionless); of the first substance listed, at infinite dilution; xn = mol fraction of the nth substance listed. The note with it: 298.15 K; 238 kPa; Liquid; Chromatography; x1 = 0.
For `CC(C)(C)Cl` [2-chloro-2-methylpropane] + C1CCCCC1, the activity coefficient came to 1.2 ± 0.2.

`CC(C)(C)Cl` [2-chloro-2-methylpropane] + CC(C)O: the activity coefficient was determined as 3 ± 0.6.

As for `CC(C)(C)Cl` [2-chloro-2-methylpropane] + CC(O)C(C)O, the activity coefficient stood at 12.3 ± 2.

For the molecule `CC(C)(C)Cl` [2-chloro-2-methylpropane] + CC(O)CCO, the activity coefficient amounted to 18.1 ± 3.1.

In the case of `CC(C)(C)Cl` [2-chloro-2-methylpropane] + CC(O)CO, the activity coefficient came out at 17.3 ± 2.1.

With `CC(C)(C)Cl` [2-chloro-2-methylpropane] + CCC(O)CO, the activity coefficient worked out at 6.4 ± 0.5.

`CC(C)(C)Cl` [2-chloro-2-methylpropane] + CCCCCCC: the activity coefficient stood at 1.02 ± 0.08.

As to `CC(C)(C)Cl` [2-chloro-2-methylpropane] + CCCCCCCC, the activity coefficient is 1.3 ± 0.2.

Consider `CC(C)(C)Cl` [2-chloro-2-methylpropane] + CCCCCCO, for which the activity coefficient came out at 2.4 ± 0.2.

Regarding `CC(C)(C)Cl` [2-chloro-2-methylpropane] + CCCCCO, the activity coefficient stood at 2.4 ± 0.4.

In the case of `CC(C)(C)Cl` [2-chloro-2-methylpropane] + CCCCO, the activity coefficient was determined as 2.4 ± 0.4.

Take `CC(C)(C)Cl` [2-chloro-2-methylpropane] + CCCO: the activity coefficient was 3.1 ± 0.4.

In the case of `CC(C)(C)Cl` [2-chloro-2-methylpropane] + CCO, the activity coefficient amounted to 4.5 ± 0.6.

With `CC(C)(C)Cl` [2-chloro-2-methylpropane] + CCOC(C)=O, the activity coefficient was found to be 0.9 ± 0.2.

For `CC(C)(C)Cl` [2-chloro-2-methylpropane] + CNC=O, the activity coefficient worked out at 6.3 ± 0.3.

`CC(C)(C)Cl` [2-chloro-2-methylpropane] + CO: the activity coefficient was found to be 6.1 ± 0.3.

Regarding `CC(C)(C)Cl` [2-chloro-2-methylpropane] + COCCO, the activity coefficient is 2.9 ± 0.4.

With `CC(C)(C)Cl` [2-chloro-2-methylpropane] + ClCCCl, the activity coefficient was found to be 0.99 ± 0.1.

Turning to `CC(C)(C)Cl` [2-chloro-2-methylpropane] + OCCO, the activity coefficient is 51.7 ± 10.

Take `CC(C)(C)Cl` [2-chloro-2-methylpropane] + OCCOCCO: the activity coefficient was 11.2 ± 2.

For `CC(C)(C)Cl` [2-chloro-2-methylpropane] + OCCOCCOCCO, the activity coefficient was 6.8 ± 0.8.

Consider `CC(C)(C)Cl` [2-chloro-2-methylpropane] + c1ccccc1, for which the activity coefficient worked out at 0.89 ± 0.08.
